Assay results from paper PMC12524618, “Conformational Dynamics of the Active Site Loop in Dihydroorotase Highlighting the Limitations of Loop-In Structures for Inhibitor Docking” (International Journal of Molecular Sciences, 2025).

What was measured:
[1] = target: T1, Saccharomyces cerevisiae dihydroorotase (DHOase) (Saccharomyces cerevisiae, UniProt P20051); assay: spectrophotometric assay of dihydroorotate hydrolysis at […] nm with purified recombinant enzyme; […] inhibition at […]; type: biochemical
T1 construct: gene URA4
T1 sequence (P20051 1-364): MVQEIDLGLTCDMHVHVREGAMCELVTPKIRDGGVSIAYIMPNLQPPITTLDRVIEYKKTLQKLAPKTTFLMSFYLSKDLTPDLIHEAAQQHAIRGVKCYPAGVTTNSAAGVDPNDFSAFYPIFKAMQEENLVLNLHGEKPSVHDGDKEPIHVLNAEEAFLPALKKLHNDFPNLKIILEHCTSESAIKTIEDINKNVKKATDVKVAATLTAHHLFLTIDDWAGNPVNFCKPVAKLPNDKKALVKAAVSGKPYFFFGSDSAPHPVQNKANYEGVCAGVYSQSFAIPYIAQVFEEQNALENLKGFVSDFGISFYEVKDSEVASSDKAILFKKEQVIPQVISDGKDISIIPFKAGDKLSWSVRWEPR

[2] = target: T1, Saccharomyces cerevisiae dihydroorotase (DHOase); assay: spectrophotometric assay of dihydroorotate hydrolysis at […] nm with purified recombinant enzyme; type: biochemical

In the case of O=C(O)c1[nH]c(=O)[nH]c(=O)c1F [5-FOA], the IC50 [1] is reported as greater than 600 µM.

Compound O=c1c(O)c(-c2cc(O)c(O)c(O)c2)oc2cc(O)cc(O)c12 [myricetin] has an IC50 [2] of 12.5 ± 0.47 µM.
